From article PMC11173529, “Structure–Activity Relationship Studies in a Series of Xanthine Inhibitors of SLACK Potassium Channels” (Molecules, 2024)

Assays:
Assay type in all cases: cell-based
Maxi-K α1/β4 = biological target: T1, Maxi-K α1/β4 (Homo sapiens, UniProt Q12791); test: Tl+-flux selectivity panel in HEK-293 cells: Maxi-K α1/β4; conditions: HEK293, 10 µM test compound, relative to control paxilline, read-out: Percent Inhibition ± SEM
T1 construct: expressed in transfected cells; host or cells: HEK293
Experimental: (§1) With a handful of analogs that offered improved SLACK potency relative to hit compound 8, we next proceeded to investigate the ancillary pharmacology of such compounds, both with respect to other Slo family members as well as versus a spectrum of diverse ion channels (Table 5). Thus, we screened four compounds (32, 48, 70, and 71) at 10 µM in our in-house selectivity panel of Tl^+-flux assays in HEK-293 cells stably expressing the target of interest. […] Some valuable SAR was noted as well. […] Reduction of inhibition at Maxi-K α1/β4 also followed. This SAR will be important to bear in mind for continued optimization within this series. […] Of particular note is the lack of significant hERG activity in this series, as activity versus that counter-target has been an issue with other SLACK inhibitors.
(§2) Stably transfected monoclonal HEK293 cell lines expressing Slick, Maxi-K α1/β3, Maxi-K α1/β4, CaV3.2, GIRK 1/2, KV2.1, KV7.2, NaV1.7, and TASK-1 were generated as previously described. Stably transfected monoclonal HEK293 cell lines expressing hERG were generated as previously described. CHO-K1 cells expressing human Slack and disease-associated human Slack mutations, G288S and A934T, were generated by transfecting a PiggyBac TRE mammalian expression vector (VectorBuilder, Chicago, IL, USA) containing KCNT1. FuGENE 6 (Promega, Madison, WI, USA) transfection reagent and protocol, together with Opti-MEM (Thermo Fisher Scientific, Walkham, MA, USA), were utilized.
(§3) The Tl^+ flux assays were conducted as previously described with modifications optimized for individual cell lines as described below. Following removal of cell culture media, cells were loaded with Tl^+-sensitive dye loading solution containing Thallos-AM (ION Biosciences, San Marcos, TX, USA), 1.25 mM Probenecid, and 0.3% Pluronic F-127 (MilliporeSigma, Burlington, MA, USA), in assay buffer comprised of Hanks Balanced Salt Solution (HBSS) (Thermo Fisher Scientific, Waltham, MA, USA) and 20 mM HEPES (Corning, Corning, NY, USA) at room temperature for one-hour. Dye loading solution was replaced with 20 μL/well of assay buffer prior to assaying. Cell plates were then loaded onto a Panoptic kinetic imaging plate reader (WaveFront Biosciences, Franklin, TN, USA). Data were acquired at 5 Hz (excitation 482 ± 35 nm, emission 536 ± 40 nm) for 10 s, at which time 20 μL/well of test compounds in assay buffer at 2-fold above the desired final concentration was added and allowed to incubate for 120 s. Next, 10 μL/well of Tl^+ stimulus buffer (129 mM Na gluconate, 1.2 mM CaSO4, 1 MgSO4, 1 mM Na2HPO4, 4.17 mM NaHCO3, 5.56 mM glucose, 2.5 mM Tl2SO4, and 10 mM HEPES pH 7.3) was added. Imaging was concluded after an additional 120 s.

GIRK 1/2 = biological target: T2, GIRK 1/2 (Homo sapiens, UniProt P48051+P48549); test: Tl+-flux selectivity panel in HEK-293 cells: GIRK 1/2; conditions: HEK293, 10 µM test compound, relative to control SCH23390, read-out: Percent Inhibition ± SEM
T2 construct: expressed in transfected cells; host or cells: HEK293
T2 sequence (P48549 1-501): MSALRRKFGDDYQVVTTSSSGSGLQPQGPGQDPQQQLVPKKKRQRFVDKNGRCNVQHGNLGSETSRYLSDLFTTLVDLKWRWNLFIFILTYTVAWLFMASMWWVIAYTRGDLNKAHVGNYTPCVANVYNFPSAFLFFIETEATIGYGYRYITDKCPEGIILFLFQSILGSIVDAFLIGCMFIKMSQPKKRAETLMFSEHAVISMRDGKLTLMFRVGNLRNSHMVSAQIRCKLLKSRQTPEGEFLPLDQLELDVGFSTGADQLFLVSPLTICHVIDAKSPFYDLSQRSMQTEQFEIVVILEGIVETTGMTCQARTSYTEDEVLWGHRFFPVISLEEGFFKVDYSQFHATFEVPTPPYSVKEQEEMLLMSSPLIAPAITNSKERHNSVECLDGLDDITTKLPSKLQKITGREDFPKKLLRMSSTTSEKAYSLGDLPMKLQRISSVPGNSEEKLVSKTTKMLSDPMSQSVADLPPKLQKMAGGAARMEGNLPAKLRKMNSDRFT
T2 sequence (P48051 1-423): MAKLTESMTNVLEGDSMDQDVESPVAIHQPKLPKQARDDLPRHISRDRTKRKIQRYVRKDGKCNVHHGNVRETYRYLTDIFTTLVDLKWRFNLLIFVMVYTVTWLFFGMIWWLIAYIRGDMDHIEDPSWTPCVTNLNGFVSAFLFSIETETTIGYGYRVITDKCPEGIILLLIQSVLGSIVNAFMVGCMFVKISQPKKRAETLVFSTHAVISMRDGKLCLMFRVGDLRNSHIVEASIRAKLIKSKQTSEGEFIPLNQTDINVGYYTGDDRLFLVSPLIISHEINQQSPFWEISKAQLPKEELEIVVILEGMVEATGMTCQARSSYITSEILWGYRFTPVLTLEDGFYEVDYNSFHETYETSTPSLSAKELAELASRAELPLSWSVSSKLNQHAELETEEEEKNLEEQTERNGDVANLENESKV
Experimental: as §1, §2, §3

KV7.2 = biological target: T3, KV7.2 (Homo sapiens, UniProt O43526); test: Tl+-flux selectivity panel in HEK-293 cells: KV7.2; conditions: HEK293, 10 µM test compound, relative to control XE991, read-out: Percent Inhibition ± SEM
T3 construct: expressed in transfected cells; host or cells: HEK293
Experimental: as §1, §2, §3

T1 sequence (Q12791 whole entry): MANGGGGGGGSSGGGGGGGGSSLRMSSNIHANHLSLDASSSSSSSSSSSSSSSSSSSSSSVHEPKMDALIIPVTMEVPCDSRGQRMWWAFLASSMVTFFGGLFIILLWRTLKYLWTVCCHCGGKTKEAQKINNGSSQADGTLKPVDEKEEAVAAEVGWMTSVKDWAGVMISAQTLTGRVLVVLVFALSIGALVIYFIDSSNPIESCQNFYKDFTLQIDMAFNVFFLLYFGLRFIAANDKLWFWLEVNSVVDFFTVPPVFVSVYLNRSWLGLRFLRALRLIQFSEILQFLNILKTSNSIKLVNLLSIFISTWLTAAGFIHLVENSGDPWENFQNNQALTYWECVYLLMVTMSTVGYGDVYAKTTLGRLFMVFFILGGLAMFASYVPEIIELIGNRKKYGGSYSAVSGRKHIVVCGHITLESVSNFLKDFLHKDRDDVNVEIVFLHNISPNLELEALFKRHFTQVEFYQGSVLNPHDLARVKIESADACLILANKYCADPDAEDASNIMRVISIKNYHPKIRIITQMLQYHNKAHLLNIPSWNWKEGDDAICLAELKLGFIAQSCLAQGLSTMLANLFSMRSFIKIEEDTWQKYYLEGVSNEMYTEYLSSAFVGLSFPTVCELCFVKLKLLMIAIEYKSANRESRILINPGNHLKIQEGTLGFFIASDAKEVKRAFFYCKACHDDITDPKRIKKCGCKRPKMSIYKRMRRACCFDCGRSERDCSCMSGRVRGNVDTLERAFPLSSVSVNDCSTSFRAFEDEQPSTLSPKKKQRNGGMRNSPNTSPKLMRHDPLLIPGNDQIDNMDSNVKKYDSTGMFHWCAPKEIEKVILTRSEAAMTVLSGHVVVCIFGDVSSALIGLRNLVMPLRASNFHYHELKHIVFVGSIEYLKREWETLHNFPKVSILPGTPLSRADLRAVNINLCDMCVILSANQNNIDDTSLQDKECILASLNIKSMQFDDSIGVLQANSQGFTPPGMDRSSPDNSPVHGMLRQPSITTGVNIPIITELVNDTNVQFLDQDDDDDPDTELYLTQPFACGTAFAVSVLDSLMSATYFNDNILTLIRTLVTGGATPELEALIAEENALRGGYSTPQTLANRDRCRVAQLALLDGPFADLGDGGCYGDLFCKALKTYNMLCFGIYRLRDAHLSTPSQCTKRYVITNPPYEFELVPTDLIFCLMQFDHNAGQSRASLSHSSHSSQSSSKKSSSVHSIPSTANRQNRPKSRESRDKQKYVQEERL
T1 sequence (Q86W47 whole entry partner): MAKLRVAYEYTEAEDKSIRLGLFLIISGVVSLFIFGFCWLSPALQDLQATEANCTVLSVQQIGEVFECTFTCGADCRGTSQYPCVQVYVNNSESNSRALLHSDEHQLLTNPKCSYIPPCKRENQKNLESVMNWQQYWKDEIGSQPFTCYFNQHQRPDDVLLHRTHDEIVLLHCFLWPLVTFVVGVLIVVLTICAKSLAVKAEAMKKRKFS

SMILES	inhibition at 10 µM (Maxi-K α1/β4) [%]	inhibition at 10 µM (GIRK 1/2) [%]	inhibition at 10 µM (KV7.2) [%]
COc1cccc(Cn2c(=O)c3c(nc(N(C)Cc4ccccc4)n3C)n(C)c2=O)c1 [Analog 32]	48 ± 2	19 ± 1.7	16 ± 2.2
CN(Cc1cccc(F)c1)c1nc2c(c(=O)n(Cc3ccccc3)c(=O)n2C)n1C [Analog 48]	42 ± 4.6	32 ± 3	15 ± 2.3
CCCCN(Cc1ccccc1)c1nc2c(c(=O)n(Cc3ccccc3)c(=O)n2C)n1C [Analog 70]	8.5 ± 2.1	9.2 ± 1.4	19 ± 0.2
Cn1c(N(Cc2ccccc2)CC2CC2)nc2c1c(=O)n(Cc1ccccc1)c(=O)n2C [Analog 71]	12 ± 3.9	12 ± 0.5	14 ± 1.6
